Like-named read-outs stand apart in the source and are kept apart here.
Legend:
p53-Y220C [1] = target: T1, p53-Y220C (Homo sapiens, UniProt P04637, M133L/N239Y/N268D/V203A/Y220C); experiment: Thermal stabilization (ΔTm) by differential scanning fluorimetry (DSF); assay type: binding; details: 10× SYPRO Orange; for ΔTm at 200 µM: 8 μM protein; for ΔTm (°C) [L] = 200 μM: Table 1, 8 μM protein
T1 construct: Stabilized p53-Y220C DBD (residues 94−312) was expressed and purified as previously described; 6xHis (N, cleaved yes); lipoyl domain (N, cleaved yes); TEV protease cleavage site (N, cleaved yes); made in house; host or cells: E. coli Rosetta2 plac I
Description: Differential Scanning Fluorimetry (DSF)
Protein thermal stabilization was determined using SYPRO orange (Life Technologies) as a dye that increases in fluorescence quantitatively upon binding to hydrophobic protein surfaces exposed upon thermal denaturation. Real-time melt analysis was recorded on a Bio-rad CFX Connect Real-time qPCR system. DSF measurements were performed using 8 μM protein and 10x SYPRO orange in assay buffer (25 mM KPi, 150 mM NaCl, 1 mM TCEP, pH 7.2) at a final DMSO concentration of 5% (v/v). ΔT m values were calculated as ΔT m = T m (protein + compound) − T m (protein). ΔT m values are reported as an average of three independent measurements. […]

p53-Y220C [2] = target: T1, p53-Y220C; details: 250 μM [ligand]; cited from earlier work
p53 = tested on: p53; set-up: method as in PMID 31633398; details: in vitro; cited from earlier work
p53-Y220C [3] = target: T1, p53-Y220C; details: binding to the Y220C pocket; cited from earlier work
[4] = tested on: p53-Y220C cancer cell lines HUH-7, BXPC-3, NUGC-3; details: HUH-7 and NUGC-3 (p53-Y220C) versus HUH7-F1 (p53-Y220C KO) and NUGC-4 (p53-WT); narrow concentration range; cited from earlier work
p53-Y220C [5] = target: T1, p53-Y220C; experiment: Binding affinity by isothermal titration calorimetry (ITC); details: for Kd: ITC, [prot] = 50 μM; for LE (kcal/mol/NHA): ligand efficiency
Description: Isothermal Titration Calorimetry (ITC)
ITC experiments were conducted using a MicroCal iTC200 calorimeter. For forward titrations, the cell unit contained 25-50 μM protein in freshly dialyzed assay buffer (25 mM KPi, 150 mM NaCl, 1 mM TCEP, pH 7.2) with a final DMSO content of 5% (v/v), and the syringe contained 0.5-5 mM compound […]
the same buffer. Injection steps used were 2 µL (initial injection: 0.5 µL) at a rate of 2 µL/s with 120 s or 240 s spacing, and all experiments were performed at 25-30 °C. Data were analyzed using MicroCal PEAQ-ITC analysis software. […]

p53-Y220C [6] = target: T1, p53-Y220C; experiment: as above; details: Table 2; ITC reverse titrations, 4–15 μM ligand, 100–147 μM protein

**Q.** For `O=C(O)c1cc(I)c(-n2cccn2)c(I)c1O` [compound 17], which ΔTm at 200 µM (p53-Y220C [1]; Table 1, [L] = 200 μM) is on record?
**A.** Its ΔTm at 200 µM is 0.7 °C.

**Q.** And the melting point?
**A.** The melting point was 241 °C (dec.).

**Q.** Which results are given for `O=C(O)c1cc(I)c(-n2ccc3ccccc32)c(I)c1O` [compound 19]?
**A.** ΔTm (°C) [L] = 200 μM (p53-Y220C [1]): induced virtually no stabilization; ΔTm at 200 µM (p53-Y220C [1]; Table 1, [L] = 200 μM): -0.3 °C; melting point: 183 to 184 °C (dec.)

**Q.** With `CCn1c2ccc(CNC)cc2c2ccc(-c3cc(C)cs3)cc21` [compound 1] as the molecule, how does the “thermal shift (ΔTm) to the protein melting temperature” value (p53-Y220C [2]) read?
**A.** The value was “over 3 °C”.

**Q.** And the p53 aggregation (p53)?
**A.** Its p53 aggregation is “reduces p53 aggregation in vitro”.

**Q.** And the Kd (p53-Y220C [3])?
**A.** The Kd was 2 µM.

**Q.** What about the “selective cell viability reduction” value [4] of the same molecule?
**A.** The value was “induces selective cell viability reduction”.

**Q.** With `O=C(O)c1cc(I)c(OCC(F)(F)F)c(I)c1O` [compound 24] as the molecule, how does the ΔTm at 200 µM (p53-Y220C [1]; Table 1, [L] = 200 μM) read?
**A.** Its ΔTm at 200 µM is 0.3 °C.

**Q.** With `CC(=O)c1ccn(-c2c(I)cc(C(=O)O)c(O)c2I)c1` [compound 46] as the molecule, how does the melting point read?
**A.** Its melting point is 235 to 236 °C (dec.).

**Q.** For `CCc1c(I)cc(C(=O)O)c(O)c1I` [compound 75], which ΔTm at 200 µM (p53-Y220C [1]; Table 1, [L] = 200 μM) is on record?
**A.** Its ΔTm at 200 µM is 1.5 °C.

**Q.** What about the Kd (p53-Y220C [5]; Table 1) of the same molecule?
**A.** The Kd was 26 µM.

**Q.** What about the “LE (kcal/mol/NHA)” value (p53-Y220C [5]; Table 1) of the same molecule?
**A.** Its value is 0.45 kcal/mol/NHA.

**Q.** What about the melting point of the same molecule?
**A.** Its melting point is 188 to 189 °C (dec.).

**Q.** For `O=C(O)c1cc(I)c(-n2cccc2)c(I)c1O` [compound 4], which ΔTm at 200 µM (p53-Y220C [1]; Table 1, [L] = 200 μM) is on record?
**A.** The ΔTm at 200 µM was 1.8 °C.

**Q.** And the Kd (p53-Y220C [5]; Table 1)?
**A.** Its Kd is 22 µM.

**Q.** And the “LE (kcal/mol/NHA)” value (p53-Y220C [5]; Table 1)?
**A.** The value was 0.37 kcal/mol/NHA.

**Q.** What about the melting point of the same molecule?
**A.** The melting point was 199 to 200 °C (dec.).

**Q.** With `COc1c(I)cc(C(=O)O)c(O)c1I` [compound 62] as the molecule, how does the ΔTm at 200 µM (p53-Y220C [1]; Table 1, [L] = 200 μM) read?
**A.** Its ΔTm at 200 µM is 1.5 °C.

**Q.** What about the Kd (p53-Y220C [5]; Table 1) of the same molecule?
**A.** Its Kd is 120 µM.

**Q.** What about the “LE (kcal/mol/NHA)” value (p53-Y220C [5]; Table 1) of the same molecule?
**A.** Its value is 0.38 kcal/mol/NHA.

**Q.** And the melting point?
**A.** Its melting point is 197 to 198 °C (dec.).

**Q.** For `Cc1c(I)cc(C(=O)O)c(O)c1I` [compound 74], which ΔTm at 200 µM (p53-Y220C [1]; Table 1, [L] = 200 μM) is on record?
**A.** The ΔTm at 200 µM was 0.3 °C.

**Q.** What does the source list for `CCN(CC)c1nc2c(C(=O)O)c(O)c(I)c(-n3cc(F)c(F)c3)c2s1` [compound 88]?
**A.** ΔTm at 200 µM (p53-Y220C [1]; Table 2, [L] = 200 μM): 1.8 °C; Kd (p53-Y220C [6]): 0.39 µM; LE (kcal/mol/NHA) (p53-Y220C [5]; Table 2): 0.34 kcal/mol/NHA; melting point: 216 to 217 °C

**Q.** What does the source list for `CCc1ccn(-c2c(I)cc(C(=O)O)c(O)c2I)c1` [compound 47]?
**A.** ΔTm (°C) [L] = 200 μM (p53-Y220C [1]): induced virtually no stabilization; ΔTm at 200 µM (p53-Y220C [1]; Table 1, [L] = 200 μM): 0.5 °C

**Q.** Which results are given for `Cc1ccc(C)n1-c1c(I)cc(C(=O)O)c(O)c1I` [compound 45]?
**A.** ΔTm at 200 µM (p53-Y220C [1]; Table 1, [L] = 200 μM): 1.1 °C; Kd (p53-Y220C [5]; Table 1): 77 µM; LE (kcal/mol/NHA) (p53-Y220C [5]; Table 1): 0.30 kcal/mol/NHA; fold reduction in binding affinity compared with 4 (p53-Y220C [5]; versus unsubstituted pyrrole reference 4): 3 fold; melting point: 215 °C (dec.)

**Q.** Which ΔTm at 200 µM (p53-Y220C [1]; Table 1, [L] = 200 μM) does the source give for `O=C(O)c1cc(I)c(-n2ccc(Cl)c2)c(I)c1O` [compound 20] here?
**A.** The ΔTm at 200 µM was 1.5 °C.

**Q.** And the Kd (p53-Y220C [5]; Table 1)?
**A.** The Kd was 38 µM.

**Q.** What about the “LE (kcal/mol/NHA)” value (p53-Y220C [5]; Table 1) of the same molecule?
**A.** Its value is 0.33 kcal/mol/NHA.

**Q.** For `O=C(O)c1cc(I)c(-n2ccc(F)c2)c(I)c1O` [compound 21], which ΔTm at 200 µM (p53-Y220C [1]; Table 1, [L] = 200 μM) is on record?
**A.** The ΔTm at 200 µM was 1.9 °C.

**Q.** What about the Kd (p53-Y220C [5]; Table 1) of the same molecule?
**A.** Its Kd is 15 µM.

**Q.** What about the “LE (kcal/mol/NHA)” value (p53-Y220C [5]; Table 1) of the same molecule?
**A.** The value was 0.37 kcal/mol/NHA.

**Q.** And the melting point?
**A.** Its melting point is 270 to 271 °C (dec.).

**Q.** Which ΔTm at 200 µM (p53-Y220C [1]; Table 1, [L] = 200 μM) does the source give for `O=C(O)c1cc(I)c(OCCC(F)(F)F)c(I)c1O` [compound 65] here?
**A.** The ΔTm at 200 µM was 0.5 °C.

**Q.** What about the melting point of the same molecule?
**A.** Its melting point is 182 to 183 °C (dec.).

— PMC9667543, “Discovery of Nanomolar-Affinity Pharmacological Chaperones Stabilizing the Oncogenic p53 Mutant Y220C” (ACS Pharmacology & Translational Science, 2022)
